≈ marks a conversion by molar mass, not a printed value. Calls of active or inactive are those of the source. No cut-off for these calls is given here.
Key:
[1] = test system: RAW264.7; experiment: Antiinflammatory activity in LPS-induced mouse RAW264.7 cells assessed as reduction in NO production at 5 ug/ml measured after 72 hrs by ELISA assay relative to control; format: functional
[2] = test system: Pseudomonas aeruginosa; experiment: Synergistic antibacterial activity against multidrug-resistant Pseudomonas aeruginosa CCARM 2095 strain assessed as bacterial growth inhibition in presence of oxacillin by checkerboard assay; format: functional
[3] = test system: Lipopolysaccharide (LPS); experiment: Binding affinity to Escherichia coli O111:B4 lipopolysaccharide assessed as suppression of FTIC labeled LPS binding to mouse RAW264.7 cells at 20 ug/ml pretreated LPS with cells for 1 hr followed by compound addition measured after 1 hr by flow cytometer assay (reference value: 48.12%); format: cell-based; settings: dose 20.0 µg/ml
[4] = test system: Cell membrane; experiment: Induction of cell membrane depolarization in Staphylococcus aureus assessed as fluorescence intensity at 2 to 16 times MIC by DiSC3(5) dye based fluorescence assay; format: subcellular
[5] = test system: Pseudomonas aeruginosa; experiment: Synergistic antibacterial activity against multidrug-resistant Pseudomonas aeruginosa CCARM 2095 strain assessed as fractional inhibitory concentration index in presence of ciprofloxacin by checkerboard assay; format: functional
[6] = test system: Staphylococcus aureus; experiment: Antibacterial activity against methicillin-resistant Staphylococcus aureus CCARM 3090 strain assessed as bacterial growth inhibition measured at 18 to 24 hrs by microdilution assay; format: functional; settings: time 18-24 hrs
[7] = test system: Escherichia coli; experiment: Antibacterial activity against Escherichia coli KCTC 1682 strain assessed as bacterial growth inhibition measured after 6 hrs in presence of trypsin by radial diffusion assay; format: functional, organism-based
[8] = test system: Pseudomonas aeruginosa; experiment: Antibacterial activity against multidrug-resistant Pseudomonas aeruginosa CCARM 2095 strain assessed as bacterial growth inhibition measured at 18 to 24 hrs by microdilution assay; format: functional; settings: time 18-24 hrs
[9] = test system: Pseudomonas aeruginosa; experiment: Synergistic antibacterial activity against multidrug-resistant Pseudomonas aeruginosa CCARM 2095 strain assessed as ciprofloxacin fractional inhibitory concentration in presence of ciprofloxacin by checkerboard assay; format: functional
[10] = test system: Staphylococcus aureus; experiment: Antibacterial activity against Staphylococcus aureus KCTC 1621 strain assessed as bacterial growth inhibition measured at 18 to 24 hrs in presence of 6 uM NH4Cl by microdilution assay; format: functional; settings: time 18-24 hrs
[11] = test system: Staphylococcus aureus; experiment: Additive antibacterial activity against methicillin-resistant Staphylococcus aureus CCARM 3089 strain assessed as chloramphenicol MIC by checkerboard assay; format: functional
[12] = test system: Staphylococcus aureus; experiment: Synergistic antibacterial activity against multidrug-resistant Staphylococcus aureus CCARM 3089 strain assessed as ciprofloxacin fractional inhibitory concentration by checkerboard assay; format: functional
[13] = test system: Staphylococcus aureus; experiment: Synergistic antibacterial activity against methicillin-resistant Staphylococcus aureus CCARM 3089 strain assessed as bacterial growth inhibition in presence of oxacillin by checkerboard assay; format: functional
[14] = test system: Lipopolysaccharide (LPS); experiment: Displacement of BODIPY-TR-cadaverine from Escherichia coli O111:B4 lipopolysaccharide assessed as increase in fluorescence at 5 ug/ml by fluorescence based assay relative to control; settings: dose 5.0 µg/ml
[15] = test system: Staphylococcus aureus; experiment: Antibacterial activity against Staphylococcus aureus KCTC 1621 strain assessed as bacterial growth inhibition measured at 18 to 24 hrs by microdilution assay; format: functional; settings: time 18-24 hrs
[16] = test system: Staphylococcus aureus; experiment: Additive antibacterial activity against multidrug-resistant Staphylococcus aureus CCARM 3089 strain assessed as fractional inhibitory concentration index in presence of oxacillin by checkerboard assay; format: functional
[17] = test system: Staphylococcus aureus; experiment: Additive antibacterial activity against multidrug-resistant Staphylococcus aureus CCARM 3089 strain assessed as fractional inhibitory concentration index in presence of chloramphenicol by checkerboard assay; format: functional
[18] = test system: Escherichia coli; experiment: Antibacterial activity against Escherichia coli KCTC 1682 strain assessed as bacterial growth inhibition measured at 18 to 24 hrs in presence of 20% human serum by microdilution assay; format: functional; settings: time 18-24 hrs
[19] = test system: Staphylococcus aureus; experiment: Antibacterial activity against Staphylococcus aureus KCTC 1621 strain assessed as bacterial growth inhibition measured at 18 to 24 hrs in presence of 2.5 mM CaCl2 by microdilution assay; format: functional; settings: time 18-24 hrs
[20] = test system: DNA; experiment: Binding affinity to plasmid DNA (unknown origin) assessed as retardation of DNA migration at 4 to 8 ug/ml incubated for 1 hr by agarose gel electrophoresis method; format: nucleic-acid assay; settings: dose 4-8 µg/ml
[21] = test system: Pseudomonas aeruginosa; experiment: Synergistic antibacterial activity against multidrug-resistant Pseudomonas aeruginosa CCARM 2095 strain assessed as oxacillin fractional inhibitory concentration in presence of oxacillin by checkerboard assay; format: functional
[22] = test system: Escherichia coli; experiment: Antibacterial activity against Escherichia coli KCTC 1682 strain assessed as bacterial growth inhibition measured after 6 hrs in presence of proteinase K by radial diffusion assay; format: functional, organism-based
[23] = test system: Escherichia coli; experiment: Antibacterial activity against Escherichia coli KCTC 1682 strain assessed as bacterial growth inhibition measured at 18 to 24 hrs in presence of 4 uM FeCl3 by microdilution assay; format: functional; settings: time 18-24 hrs
[24] = test system: Pseudomonas aeruginosa; experiment: Synergistic antibacterial activity against multidrug-resistant Pseudomonas aeruginosa CCARM 2095 strain assessed as oxacillin MIC by checkerboard assay; format: functional
[25] = test system: Staphylococcus aureus; experiment: Additive antibacterial activity against multidrug-resistant Staphylococcus aureus CCARM 3089 strain assessed as ciprofloxacin fractional inhibitory concentration by checkerboard assay; format: functional
[26] = test system: Pseudomonas aeruginosa; experiment: Synergistic antibacterial activity against multidrug-resistant Pseudomonas aeruginosa CCARM 2095 strain assessed as ciprofloxacin fractional inhibitory concentration by checkerboard assay; format: functional
[27] = test system: Staphylococcus aureus; experiment: Synergistic antibacterial activity against multidrug-resistant Staphylococcus aureus CCARM 3089 strain assessed as fractional inhibitory concentration index in presence of oxacillin by checkerboard assay; format: functional
[28] = test system: Pseudomonas aeruginosa; experiment: Synergistic antibacterial activity against multidrug-resistant Pseudomonas aeruginosa CCARM 2095 strain assessed as oxacillin fractional inhibitory concentration by checkerboard assay; format: functional
[29] = test system: Staphylococcus aureus; experiment: Synergistic antibacterial activity against methicillin-resistant Staphylococcus aureus CCARM 3089 strain assessed as bacterial growth inhibition in presence of ciprofloxacin by checkerboard assay; format: functional
[30] = test system: Enterococcus faecium; experiment: Antibacterial activity against vancomycin-resistant Enterococcus faecium ATCC 51559 strain assessed as bacterial growth inhibition measured at 18 to 24 hrs by microdilution assay; format: functional; settings: time 18-24 hrs
[31] = test system: Staphylococcus aureus; experiment: Antibacterial activity against Staphylococcus aureus KCTC 1621 strain assessed as bacterial growth inhibition measured at 18 to 24 hrs in presence of 4 uM FeCl3 by microdilution assay; format: functional; settings: time 18-24 hrs
[32] = test system: RAW264.7; experiment: Antiinflammatory activity in LPS-induced mouse RAW264.7 cells assessed as reduction in TNF alpha level at 20 ug/ml measured after 72 hrs by ELISA assay relative to control; format: functional
[33] = test system: Staphylococcus epidermidis; experiment: Antibacterial activity against Staphylococcus epidermidis KCTC 1917 strain assessed as bacterial growth inhibition measured at 18 to 24 hrs by microdilution assay; format: functional; settings: time 18-24 hrs
[34] = test system: Cell membrane; experiment: Induction of cell membrane depolarization in Staphylococcus aureus assessed as increase in fluorescence intensity at 2 times MIC by SYTOX green staining based analysis
[35] = test system: Erythrocyte; experiment: Hemolytic activity in sheep RBC assessed as minimal hemolytic concentration causing 10% hemolysis incubated for 1 hr by ELISA; format: toxicity, cell-based, Ovis aries
[36] = test system: RAW264.7; experiment: Antiinflammatory activity in LPS-induced mouse RAW264.7 cells assessed as reduction in iNOS mRNA expression level at 5 ug/ml measured after 18 hrs by RT-PCR assay relative to control; format: functional, cell-based; settings: dose 5.0 µg/ml
[37] = test system: Pseudomonas aeruginosa; experiment: Antibiofilm activity against multidrug-resistant Pseudomonas aeruginosa assessed as biofilm eradication; format: functional

Row | SMILES | inhibition at 5 µg/mL [1] | Flu intensity [3] | Activity [4] | MIC [6] | Activity [7] | MIC [8] | MIC [10] | MIC [15] | MIC [18] | MIC [19] | Activity [20] | Activity [22] | MIC [23] | MIC [30] | MIC [31] | inhibition at 20 µg/mL [32] | MIC [33] | Activity [34] | MHC [35] | Activity [36] | further results
1 | NCCCCNc1nc(NCCCCN)nc(N2CC(Cc3ccccc3)N(c3nc(NCCCCN)nc(NCCCCN)n3)CC2Cc2ccccc2)n1 (stereo not given) | 72.6% | 21.2% | inactive | 5.2 µM (≈ 4 µg/mL) | Active | 41.6 µM (≈ 32 µg/mL) | 5.2 µM | 5.2 µM (≈ 4 µg/mL) | 10.4 µM | 10.4 µM | Active | Active | 10.4 µM | 41.6 µM (≈ 32 µg/mL) | 20.8 µM | 97.2% | 5.2 µM (≈ 4 µg/mL) | inactive | > 332.8 µM | Active | MIC [2]: 8 µg/mL; fractional inhibitory concentration index (FICI) [5]: 0.375; FIC [9]: 0.25; MIC [11]: 64 µg/mL; FIC [12]: 0.125; MIC [13]: 1 µg/mL; Activity [14]: > 50%; fractional inhibitory concentration index (FICI) [16]: 0.5; fractional inhibitory concentration index (FICI) [17]: 0.625; FIC [21]: 0.25; MIC [24]: 256 µg/mL; FIC [25]: 0.125; FIC [26]: 0.125; fractional inhibitory concentration index (FICI) [27]: 0.5; FIC [28]: 0.25; MIC [29]: 1 µg/mL
2 | NCCN(CCN)c1nc(NCc2ccccc2)nc(N2CC(Cc3ccccc3)N(c3nc(NCc4ccccc4)nc(N(CCN)CCN)n3)CC2Cc2ccccc2)n1 (stereo not given) | – | 16.4% | inactive | 5.4 µM (≈ 4.52 µg/mL) | Active | 21.4 µM (≈ 17.9 µg/mL) | 5.4 µM | 5.4 µM (≈ 4.52 µg/mL) | 5.4 µM | 5.4 µM | Active | Active | 10.8 µM | 21.4 µM (≈ 17.9 µg/mL) | 5.4 µM | 95.6% | 2.7 µM (≈ 2.26 µg/mL) | inactive | > 342.5 µM | Active | MIC [2]: 4 µg/mL; fractional inhibitory concentration index (FICI) [5]: 0.375; FIC [9]: 0.125; FIC [12]: 0.125; MIC [13]: 1 µg/mL; Activity [14]: 75%; fractional inhibitory concentration index (FICI) [16]: 0.5; MBEC50 [37]: 10.4 µM; MBEC90 [37]: 10.4 µM; FIC [21]: 0.25; MIC [24]: 128 µg/mL; FIC [25]: 0.125; FIC [26]: 0.25; fractional inhibitory concentration index (FICI) [27]: 0.5; FIC [28]: 0.125; MIC [29]: 1 µg/mL
3 | NCCNc1nc(NCCN)nc(N2CC(Cc3ccccc3)N(c3nc(NCCN)nc(NCCN)n3)CC2Cc2ccccc2)n1 (stereo not given) | 31.5% | 33.4% | inactive | 3 µM (≈ 1.97 µg/mL) | Active | 24.3 µM (≈ 16 µg/mL) | 6.1 µM | 6.1 µM (≈ 4.01 µg/mL) | 12.2 µM | 6.1 µM | Active | Active | 12.2 µM | 24.3 µM (≈ 16 µg/mL) | 6.1 µM | 72.4% | 6.1 µM (≈ 4.01 µg/mL) | inactive | > 389.1 µM | Active | fractional inhibitory concentration index (FICI) [5]: 0.5; FIC [9]: 0.25; MIC [11]: 128 µg/mL; MIC [13]: 8 µg/mL; fractional inhibitory concentration index (FICI) [16]: 0.5; fractional inhibitory concentration index (FICI) [17]: 0.75; MBEC50 [37]: 24.3 µM; MBEC90 [37]: 97.3 µM; FIC [26]: 0.25; fractional inhibitory concentration index (FICI) [27]: 0.5
4 | NCCCN(CCCN)c1nc(NCc2ccccc2)nc(N2CC(Cc3ccccc3)N(c3nc(NCc4ccccc4)nc(N(CCCN)CCCN)n3)CC2Cc2ccccc2)n1 (stereo not given) | 75.7% | 27.4% | inactive | 2.8 µM (≈ 2.5 µg/mL) | Active | 20 µM (≈ 17.9 µg/mL) | 5 µM | 2.5 µM (≈ 2.23 µg/mL) | 10 µM | 5 µM | Active | Active | 5 µM | 10 µM (≈ 8.93 µg/mL) | 5 µM | 95.4% | 5 µM (≈ 4.47 µg/mL) | inactive | > 318.5 µM | Active | MIC [2]: 4 µg/mL; fractional inhibitory concentration index (FICI) [5]: 0.312; FIC [9]: 0.25; FIC [12]: 0.125; MIC [13]: 1 µg/mL; Activity [14]: > 50%; fractional inhibitory concentration index (FICI) [16]: 0.375; MBEC50 [37]: 10 µM; MBEC90 [37]: 39.8 µM; FIC [21]: 0.25; MIC [24]: 256 µg/mL; FIC [25]: 0.125; FIC [26]: 0.063; fractional inhibitory concentration index (FICI) [27]: 0.375; FIC [28]: 0.25; MIC [29]: 1 µg/mL
5 | N=C(N)NCCNc1nc(NCCNC(=N)N)nc(N2CC(Cc3ccccc3)N(c3nc(NCCNC(=N)N)nc(NCCNC(=N)N)n3)CC2Cc2ccccc2)n1 (stereo not given) | 68.1% | 40.6% | inactive | 4.8 µM (≈ 3.96 µg/mL) | Active | 19.4 µM (≈ 16 µg/mL) | 4.8 µM | 4.8 µM (≈ 3.96 µg/mL) | 9.7 µM | 9.6 µM | Active | Active | 19.4 µM | 38.7 µM (≈ 31.9 µg/mL) | 9.6 µM | 99.8% | 4.8 µM (≈ 3.96 µg/mL) | inactive | > 309.8 µM | Active | MIC [11]: 128 µg/mL; Activity [14]: > 50%; fractional inhibitory concentration index (FICI) [17]: 0.75

— ChEMBL document CHEMBL5331051, “Cationic, amphipathic small molecules based on a triazine-piperazine-triazine scaffold as a new class of antimicrobial agents” (Eur J Med Chem, 2022)
